According to US12678454B2, “Bicarbonate as a potentiator for antimicrobial agents” (priority 2017, dated 2026):
Read-outs that look alike come from different tables or passages of the source.

Legend:
[1] = system: S. aureus (Strain Newman); experiment: MIC determination (CLSI protocol) in MHB; format: cell-based, Staphylococcus aureus; settings: Staphylococcus aureus
Procedure: (§1) In the following experiments, bacterial cells were cultured in 96-well microtiter plates in cation-adjusted Mueller-Hinton Broth (MHB) for 18 h at 37° C. The main strains used in this study were E. coli (K-12 BW25113) (placed in stationary incubator) and S. aureus (Strain Newman) (incubated at 250 r.p.m). Knockout strains (ΔtolcC and ΔychM) were used from the Keio knockout collection (Baba, T. et al. Construction of Escherichia coli K-12 in-frame, single-gene knockout mutants: the Keio collection. Mol Syst Biol 2, 2006 0008, doi:10.1038/msb4100050 (2006)). For minimum concentration for inhibition (MIC) determination and checkerboard analyses, Clinical & Laboratory Standards Institute (CLSI) protocol was used. […] DiSC3 loading of S. aureus cells was performed as previously described (Farha, M. A., Verschoor, C. P., Bowdish, D. & Brown, E. D. Collapsing the proton motive force to identify synergistic combinations against Staphylococcus aureus. Chemistry & biology 20, 1168-1178, doi:10.1016/j.chembiol.2013.07.006 (2013)). CCCP concentration of 20 μM was used. pH adjustments were made by addition of HCl or NaOH. INT assay and ATP bioluminescence assays were performed as previously described (Farha, M. A., Verschoor, C. P., Bowdish, D. & Brown, E. D. Collapsing the proton motive force to identify synergistic combinations against Staphylococcus aureus. Chemistry & biology 20, 1168-1178, doi:10.1016/j.chembiol.2013.07.006 (2013)). For chemical-genomic studies, the Keio library was grown overnight in cation-adjusted MHB broth, in 384-well plates. From these, treatment plates (25 mM sodium bicarbonate, or a sterile water control) were inoculated and grown for 15 hours at 37° C., in a stationary incubator. Data was normalized according to Mangat et al (Mangat, C. S., Bharat, A., Gehrke, S. S. & Brown, E. D. Rank ordering plate data facilitates data visualization and normalization in high-throughput screening. J Biomol Screen 19, 1314-1320, doi:10.1177/1087057114534298 (2014)), with gene products and GO terms mined from EcoCyc. The GFP promoter library (Keseler, I. M. et al. EcoCyc: fusing model organism databases with systems biology. Nucleic Acids Res 41, D605-612, doi:10.1093/nar/gks1027 (2013)) was grown for 18 hours at ambient temperature with the same inoculation strategy as with the Keio collection. The analysis pipeline of Zaslaver et al (Zaslaver, A. et al. A comprehensive library of fluorescent transcriptional reporters for Escherichia coli. Nat Methods 3, 623-628, doi:10.1038/nmeth895 (2006)) was used to generate maps of promoter activity, from which lists of promoters with increased or decreased activity were compiled.

Enterococcus faecium = system: Enterococcus faecium
Procedure: In the following experiments, bacterial cells were cultured in 96-well microtiter plates in cation-adjusted Mueller-Hinton Broth (MHB) for 18 h at 37° C. The main strains used in this study were E. coli (K-12 BW25113) (placed in stationary incubator) and S. aureus (Strain Newman) (incubated at 250 r.p.m). Knockout strains (ΔtolcC and ΔychM) were used from the Keio knockout collection (Baba, T. et al. Construction of Escherichia coli K-12 in-frame, single-gene knockout mutants: the Keio collection. Mol Syst Biol 2, 2006 0008, doi:10.1038/msb4100050 (2006)). For minimum concentration for inhibition (MIC) determination and checkerboard analyses, Clinical & Laboratory Standards Institute (CLSI) protocol was used. […] DiSC3 loading of S. aureus cells was performed as previously described (Farha, M. A., Verschoor, C. P., Bowdish, D. & Brown, E. D. Collapsing the proton motive force to identify synergistic combinations against Staphylococcus aureus. Chemistry & biology 20, 1168-1178, doi:10.1016/j.chembiol.2013.07.006 (2013)). CCCP concentration of 20 μM was used. pH adjustments were made by addition of HCl or NaOH. […]

Pseudomonas aeruginosa = experiment: MIC determination (CLSI protocol); format: cell-based
Procedure: as §1, with “The GFP promoter library (Keseler, I. M. et al. EcoCyc: fusing model organism databases with systems biology. Nucleic Acids Res 41, D605-612, doi:10.1093/nar/gks1027 (2013)) was grown for 18 hours at ambient temperature with the same inoculation strategy as with the Keio collection. The analysis pipeline of Zaslaver et al (Zaslaver, A. et al. A comprehensive library of fluorescent transcriptional reporters for Escherichia coli. Nat Methods 3, 623-628, doi:10.1038/nmeth895 (2006)) was used to generate maps of promoter activity, from which lists of promoters with increased or decreased activity were compiled.” left out

Acinetobacter baumannii = experiment: MIC determination (CLSI protocol); format: cell-based
Procedure: as §1, with “The GFP promoter library (Keseler, I. M. et al. EcoCyc: fusing model organism databases with systems biology. Nucleic Acids Res 41, D605-612, doi:10.1093/nar/gks1027 (2013)) was grown for 18 hours at ambient temperature with the same inoculation strategy as with the Keio collection. The analysis pipeline of Zaslaver et al (Zaslaver, A. et al. A comprehensive library of fluorescent transcriptional reporters for Escherichia coli. Nat Methods 3, 623-628, doi:10.1038/nmeth895 (2006)) was used to generate maps of promoter activity, from which lists of promoters with increased or decreased activity were compiled.” left out

Klebsiella pneumoniae = experiment: MIC determination (CLSI protocol); format: cell-based
Procedure: as §1, with “The GFP promoter library (Keseler, I. M. et al. EcoCyc: fusing model organism databases with systems biology. Nucleic Acids Res 41, D605-612, doi:10.1093/nar/gks1027 (2013)) was grown for 18 hours at ambient temperature with the same inoculation strategy as with the Keio collection. The analysis pipeline of Zaslaver et al (Zaslaver, A. et al. A comprehensive library of fluorescent transcriptional reporters for Escherichia coli. Nat Methods 3, 623-628, doi:10.1038/nmeth895 (2006)) was used to generate maps of promoter activity, from which lists of promoters with increased or decreased activity were compiled.” left out

[2] = prior to pH-adjusting to 7.4
Source text: Test media were pH-adjusted upon addition of sodium bicarbonate for all studies reported herein.

E. coli = experiment: Microdilution checkerboard analyses; format: cell-based, Escherichia coli; settings: E. coli; dose-dependent
Procedure: as §1, with “The GFP promoter library (Keseler, I. M. et al. EcoCyc: fusing model organism databases with systems biology. Nucleic Acids Res 41, D605-612, doi:10.1093/nar/gks1027 (2013)) was grown for 18 hours at ambient temperature with the same inoculation strategy as with the Keio collection. The analysis pipeline of Zaslaver et al (Zaslaver, A. et al. A comprehensive library of fluorescent transcriptional reporters for Escherichia coli. Nat Methods 3, 623-628, doi:10.1038/nmeth895 (2006)) was used to generate maps of promoter activity, from which lists of promoters with increased or decreased activity were compiled.” left out

[3] = system: Klebsiella pneumonia (ATCC 43816); settings: mice
Procedure: Mice were infected with Klebsiella pneumonia (ATCC 43816; inoculum=2.5×10^6 CFU/mL). Following infection, the infected mice were treated with 4 mL nebulized doses of 225 mM sodium bicarbonate using a chamber nebulizer delivery system (Kent Scientific) at 2, 12 and 24 hours post-infection. The mice were sacrificed after 36 hours, and bacterial counts enumerated.

E. coli (K-12 BW25113) = format: cell-based, Escherichia coli
Procedure: as §1

[4] = system: methicillin-resistance Staphylococcus aureus (MRSA) USA-300; experiment: Superficial skin infection model, tape-stripped mice; format: in vivo; settings: topical 0.5% aqueous solution with or without bicarbonate (50 mM)
Procedure: In this model, an infection is established by disrupting the skin barrier through partial removal of the epidermal layer by stripping with adhesive tape and with subsequent application of the pathogen. Tape-stripped mice infected with 4×10^6 CFU/mL A. baumannii (FIG. 4A) or 4×10^6 CFU/mL methicillin-resistance Staphylococcus aureus (MRSA) USA-300 (FIG. 4B). […] This treatment regime was also conducted for the Vehicle (1.9% Boric Acid, pH 7) as a control (n=4). Tissue samples were collected at 25 hr post-infection (FIG. 4A) and 28 hr post-infection (FIG. 4B). […] (FIG. 5).

A. baumannii = experiment: Murine model of systemic A. baumannii infection; format: in vivo; settings: mice
Procedure: Mice were treated two-hours post-infection to allow complete organ occupancy by the injected cells.

Row | Compound | MIC of sodium bicarbonate [1] [mM] | MIC of sodium bicarbonate (Enterococcus faecium) [mM] | MIC of sodium bicarbonate (Pseudomonas aeruginosa) [mM] | MIC of sodium bicarbonate (Acinetobacter baumannii) [mM] | MIC of sodium bicarbonate (Klebsiella pneumoniae) [mM] | pH of MHB media ([2]; 3.12 mM sodium bicarbonate) | pH of MHB media ([2]; 25 mM sodium bicarbonate) | pH of MHB media ([2]; 50 mM sodium bicarbonate) | pH of MHB media ([2]; 100 mM sodium bicarbonate) | effect on activity of pentamidine (checkerboard) (E. coli) | tolerability of nebulized bicarbonate ([3]; 225 mM nebulized) | bacterial counts ([3]; 4 mL nebulized 225 mM sodium bicarbonate at 2, 12, 24 h, counts after 36 hours, inoculum 2.5×10^6 CFU/mL) | MIC of sodium bicarbonate (E. coli (K-12 BW25113); Escherichia coli) [mM] | potentiation of antibacterial activity in the presence of bicarbonate, average (Gram-positive organisms) [fold] | potentiation of antibacterial activity in the presence of bicarbonate, average (Gram-negative organisms) [fold] | effect of addition of bicarbonate on efficacy of pentamidine in clearing MRSA infection [4] | A. baumannii organ load (spleen), combination (A. baumannii; combination of pentamidine 10 mg/kg and novobiocin IP) | decrease of A. baumannii organ load (spleen) (A. baumannii; pentamidine alone IP) | MIC of pentamidine, tissue culture media formulated to mimic the natural environment (E. coli (K-12 BW25113)) [mg/L]
1 | O=C([O-])O.[Na+] [Sodium bicarbonate] | 50 to 100 | 50 to 100 | >100 | 50 | 100 | 7.42 | 7.53 | 7.61 | 7.71 | greatly potentiated the activity of pentamidine | well tolerated | 4×10^4-4×10^5 CFU/mL | 100 |  |  |  |  |  | 
2 | N=C(N)c1ccc(OCCCCCOc2ccc(C(=N)N)cc2)cc1 [pentamidine] |  |  |  |  |  |  |  |  |  |  |  |  |  | 50 | 40 | increased the antibacterial efficacy | total clearance | seven | 1.5
